The values below come from ChEMBL document CHEMBL1153006, “Synthesis, NMR characterization and in vitro antitumor evaluation of new aminophosphonic acid diesters” (Eur J Med Chem, 2009).

The term IC50 denotes the point on the concentration scale where inhibition reaches its midpoint.

Assay type in all cases: functional, cell-based
One test has as its system LAMA-84. Kind of test: Cytotoxicity against human LAMA-84 cells after 72 hrs by MTT assay. The note with it: LAMA-84, 72 h. On the technique in general: Formazan colour is commonly taken as a measure of viable cells.
A further test relates to K562. Kind of test: Cytotoxicity against human K562 cells after 72 hrs by MTT assay. The note with it: K562, 72 h.
Test [1] deals with HL-60. Kind of test: Cytotoxicity against human HL60 cells after 72 hrs by MTT assay. The note with it: HL-60, 72 h.
Test [2] relates to HL-60. Put plainly: Cytotoxicity against multidrug-resistant human HL60 cells overexpressing in MRP-1 after 72 hrs by MTT assay. The note with it: HL-60, 72 h.

Regarding `Cc1ccc(/N=C\c2ccc(N(C)C)cc2)cc1`, the 50% inhibitory concentration (IC50) in the test with LAMA-84 is 252 µM; in the test on K562, 213 µM; in the test on HL-60 [1], above 400 µM; with HL-60 [2], 226 µM.
With `Cc1ccc(/N=C\c2ccco2)cc1` [N-FURFURYLIDENE-P-TOLUIDINE], the IC50 in the test on LAMA-84 was 39.9 µM; in the test with K562, 29.9 µM; with HL-60 [1], above 400 µM; in the test on HL-60 [2], 68.6 µM.
Consider `CCOP(=O)(OCC)C(NCCCN(C)C)c1ccco1` (stereo unspecified), for which the half-maximal inhibitory concentration (IC50) with LAMA-84 is above 400 µM; with K562 it was 353 µM; in the test on HL-60 [1], 163 µM; in the test on HL-60 [2], 190 µM.
For `CCOP(=O)(OCC)C(Nc1ccc(C)cc1)c1ccc(N(C)C)cc1` (stereo unspecified), the IC50 with LAMA-84 is 119 µM; in the test on K562 it was 42.4 µM; in the test with HL-60 [1], above 400 µM; in the test on HL-60 [2], 107 µM.
